Data from PubChem BioAssay (NCI).
Several values for one entry are separate records, joined by “and”; a condition that tells them apart may be missing. Identical values can stand only once.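 1) Cells in 96-well plates. 2) Compound, 48 h, 5 concentrations. 3) Linear interpolation between surrounding doses. 4) Unreached endpoint = highest concentration. GI50 is the concentration that inhibits growth by half. Definition used: TGI = concentration required for complete inhibition of growth.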

How the values were obtained:
Experiment in all cases: DTP human tumour cell line panel, 48 h
[1] = test system: A498 renal
[2] = test system: CAKI-1 renal
[3] = test system: CCRF-CEM leukemia
[4] = test system: COLO 205 colon
[5] = test system: MOLT-4 leukemia
[6] = test system: OVCAR-3 ovarian
[7] = test system: OVCAR-5 ovarian
[8] = test system: RXF 393 renal
[9] = test system: SK-MEL-2 melanoma
[10] = test system: SF-295 CNS

Structure (SMILES) | GI50 [1] | TGI [1] [µM] | GI50 [2] [µM] | TGI [2] | GI50 [3] [nM] | TGI [3] [µM] | GI50 [4] | TGI [4] [µM] | GI50 [5] | TGI [5] [µM] | GI50 [6] [nM] | TGI [6] [µM] | GI50 [7] | TGI [7] [µM] | GI50 [8] [µM] | TGI [8] | GI50 [9] [µM] | TGI [9] | TGI [10] [µM] | GI50 [10]
COC(=O)C1=C(O)C(C(=O)OC)[C@@]2(O)[C@@H](C(=O)OC)C(c3ccccc3C(F)(F)F)C[C@@H]1[C@@H]2C(=O)OC (stereo partly specified) | 3.05 µM | 7.62 | 2.71 | 6.73 µM | 2130 | 11.2 | 175 nM | 2.27 | 1880 nM | 6.97 | 1690 | 4.14 | 17.4 µM | 33.3 | 3.11 | 7.65 µM | 19.7 | 36.4 µM | – | –
CC(=O)OC1CC[C@@]2(C)C(CC(OC3OC(CO)C(O)C(O)C3O)[C@]3(C)C2CCC24CC23CC[C@H]4C(C)CC(O)[C@@H](O)C(C)(C)O)C1(C)C (stereo partly specified) | – | 45.3 | – | > 50 µM | – | 25.7 | – | 17.1 | – | 24.7 | – | 48.7 | – | > 50 | – | 30.1 µM | – | 18.8 µM | > 50 | –
CC(=O)O/N=C1\C=Cc2c(no[n+]2[O-])C1=O | – | 30.3 | – | 35.8 µM | – | 17.6 | – | 22 | – | 36.6 | – | 30 | – | 32.7 | – | 28.5 µM | – | 32.7 µM | > 100 | –
CC([C@H]1CCC2C3CCC4C(=O)C(NC=O)=CC[C@]4(C)C3CC[C@@]21C)N(C)C (stereo partly specified) | 3.83 µM | 12.5 | 3.79 | 33.5 µM | 3240 | 18.7 | 1750 nM | 3.4 | 2550 nM | 10.2 | 2700 | 10.2 | 8.45 µM | 24.9 | 4.66 | 16.6 µM | 7.7 | 25.2 µM | 5.67 | 2.11 µM
COc1cc(Oc2cnc3cc(N)cc(N)c3n2)cc(OC)c1OC | 65.1 µM | > 100 | 38.2 | > 100 µM | 50700 | > 100 | 27800 nM | 71.6 | 20200 nM | 51.9 | 26800 | > 100 | 23 µM | 62.6 | 25.4 | 89.8 µM | > 100 | > 100 µM | > 100 | 74.4 µM
CC(CC(C)[C@H]1CCC2[C@H]3C(CC[C@@]21C)[C@@]1(C)CCC(O)C[C@H]1C[C@@H]3O)C(=O)O (stereo partly specified) | – | > 100 | – | > 100 µM | – | > 100 | – | > 100 | – | > 100 | – | – | – | > 100 | – | > 100 µM | – | > 100 µM | – | –
CCCCC#Cc1c(I)n(C2OC(CO[Si](C)(C)C(C)(C)C)C3OC(C)(C)OC32)c(=O)[nH]c1=O (stereo unspecified) | 13.3 µM | 26 | 12.5 | 25.3 µM | 2640 | 8.04 | – | – | 1770 nM | 4.34 | 1530 | 2.86 | 14.4 µM | 27.9 | 1.5 | 5.46 µM | 1.37 | 3.58 µM | 51.5 | 22 µM
COC(=O)c1nc(N)[nH]c(=O)c1-c1ccc(Cl)cc1 | – | > 100 | – | > 100 µM | – | > 100 | – | > 100 | – | > 100 | – | > 100 | – | > 100 | – | > 100 µM | – | > 100 µM | > 100 | –
COc1cc(C2C3=C(COC3=O)N(CCO)c3cc4c(cc32)OCCO4)cc(OC)c1O (stereo unspecified) | 1.41 µM | > 23.4 | 2.84 | > 45 µM | 1840 | > 50 | 1670 nM | 12 | 3680 nM | > 50 | 947 | 2.29 | 49.9 µM | > 50 | 0.971 | > 50 µM | – | > 13.4 µM | 4.12 | 1.22 µM
O=C(NCCc1ccccc1)C(c1csc2ccccc12)N(C(=O)CCl)c1ccc(-c2cnco2)cc1 (stereo unspecified) | 0.62 µM | 1.48 | 0.096 | 0.487 µM | 22.9 | 0.0594 | 1560 nM | 3.28 | 209 nM | 0.678 | 156 | 0.828 | 0.682 µM | 2.07 | 0.145 | 0.587 µM | 1.64 | 3.12 µM | 0.302 | 0.156 µM
CCSc1sc(-c2ccc(C)cc2)nc1[P+](c1ccccc1)(c1ccccc1)c1ccccc1 | 0.161 µM | 0.597 | 0.488 | 1.35 µM | 377 | 2.14 | – | – | 391 nM | 1.87 | 300 | 1.18 | 0.376 µM | 1.56 | 0.255 | 1.23 µM | 0.273 | 0.805 µM | 0.736 | 0.235 µM
Cc1cc(C)cc(NC(=O)CCC(=O)C2CCC/C2=N\NC(=O)C(=O)NN)c1 (stereo unspecified) | – | > 100 | – | > 100 µM | – | > 100 | – | > 100 | – | > 100 | – | > 100 | – | > 100 | – | > 100 µM | – | > 100 µM | > 100 | –
CCCCCCCC(=O)SCC/C=C/[C@@H]1CC(=O)NCc2cccc(n2)CN(Cc2ccc(Cl)cc2)CC(=O)N[C@@H](C(C)C)C(=O)O1 | 8.67 µM | 22.8 | 28 | > 100 µM | 4560 | > 100 | 17600 nM | 42.9 | 3210 nM | > 100 | 13100 | 49.4 | 9.98 µM | > 100 | 5.9 | 44 µM | 13.3 | > 100 µM | 20.3 | 4.45 µM
c1cc(C2O[C@H]3CCCN3[C@@H]2c2ccncc2)ccn1 (stereo partly specified) | – | > 100 | – | > 100 µM | – | > 100 | – | > 100 | – | > 100 | – | > 100 | – | > 100 | – | > 100 µM | – | > 100 µM | > 100 | –
O=C(O)C(=O)/C=C\c1ccc(Cl)cc1 | – | > 100 | – | > 100 µM | – | > 100 | – | > 100 | – | > 100 | – | > 100 | – | > 100 | – | > 100 µM | – | > 100 µM | > 100 | –
Nc1ncnc2c1ncn2C1OC(CO)C(O)C1O (stereo unspecified) | 93.2 µM and 43.5 µM and 55.1 µM | > 100 | – | > 100 µM and > 450 µM and 74.9 µM | > 100000 | > 284 | > 100000 nM and > 450000 nM and 60300 nM | > 450 | > 100000 nM and 201000 nM | > 450 | – | – | > 100 µM and 257 µM and 34.6 µM | > 450 | 22.5 | > 100 µM and 290 µM and 64.1 µM | – | > 100 µM and > 450 µM and 75.7 µM | > 450 | > 100 µM and 215 µM and 32.6 µM
N=C(N)c1ccc(-c2ccc(-c3ccco3)o2)cc1 | 6.58 µM | 20 | 3.94 | 16.6 µM | 3110 | 15.2 | 1780 nM | 3.48 | 3260 nM | 10.8 | 9770 | 22.1 | 4.98 µM | 18.8 | 4.68 | 18.4 µM | 2.41 | 4.65 µM | – | –
COC(=O)C1=C(O)C(C(=O)OC)[C@@]2(O)[C@@H](C(=O)OC)C(c3ccc(OC(=O)C(Cc4ccccc4)NC(C)=O)cc3)C[C@@H]1[C@@H]2C(=O)OC (stereo partly specified) | 24.5 µM | 62.9 | 38.7 | > 100 µM | 32900 | > 100 | 27900 nM | > 100 | 14800 nM | 46.4 | – | – | 35 µM | 97.3 | 25.4 | 51.2 µM | 47.4 | > 100 µM | 69.3 | 32.8 µM
COc1cc2c(cc1OC)[C@@H]1[C@H](C2=O)c2ccc([N+](=O)[O-])cc2C(=O)N1CCCBr | 0.666 µM | 2.14 | < 0.01 | – | < 10 | – | – | – | < 18 nM | – | – | 0.748 | 1.64 µM | > 100 | 0.285 | 2.22 µM | 4.62 | > 100 µM | – | –
NNC(=S)N/N=C(\c1nc2ccc(Cl)cc2[nH]c1=O)C(O)c1ccc(Cl)cc1Cl (stereo unspecified) | – | > 100 | – | > 100 µM | – | > 100 | – | > 100 | – | > 100 | – | – | – | > 100 | – | > 100 µM | – | > 100 µM | > 100 | –
CC(=O)OCC1OC(n2c(-c3ccc(N)cc3)cc(-c3ccco3)c(C#N)c2=O)C(OC(C)=O)C(OC(C)=O)C1OC(C)=O (stereo unspecified) | – | > 50 | – | > 50 µM | – | – | – | > 50 | – | > 50 | – | > 50 | – | > 50 | – | > 50 µM | – | > 50 µM | > 50 | –
Nc1ccc(Cl)cc1.Nc1ccc(Cl)cc1.Nc1ccc(Cl)cc1.O=C([O-])C(=O)[O-].O=C([O-])C(=O)[O-].[H+].[Ru+5] | > 82.1 µM | > 100 | – | > 100 µM | 176 | > 68 | 36.2 nM | 0.169 | 1200 nM | > 100 | 1100 | > 100 | – | – | > 100 | > 100 µM | 0.219 | – | – | 0.127 µM
Clc1cc(Cl)c2n[se]nc2c1 | – | > 100 | – | > 100 µM | – | > 100 | – | – | – | > 100 | – | – | – | > 100 | – | > 100 µM | – | > 100 µM | > 100 | –
